“And” between values parts separate entries of the source, which are not always exact repeats. Equal values may be shown once.
What was measured:
[1] = tested on: LRRK2 S935 phosphorylation; assay: Western blot of LRRK2 biomarker site pS935 in transfected 293T cells; type: cell-based, human
Method: For all in cell kinase assays, after 48 hours, transfected cells were treated with either DMSO (control) or the indicated inhibitors for 4 hours at 37°C and 5% CO2. Following treatments, cells were washed three times with ice cold PBS. Cells were then lysed in ice cold radioimmunoprecipitation assay (RIPA) lysis buffer [50 mM tris (pH 8.0), 150 mM NaCl, 1% Triton X-100, 0.1% SDS, 0.5% sodium deoxycholate, and 1 mM DTT] in the presence of complete mini EASYpack protease inhibitor cocktail and the PhosSTOP EASYpack phosphatase inhibitor cocktail (Roche). Resuspended and lysed cells were clarified by centrifugation at 13,000g for 15 min at 4°C. NuPAGE LDS Sample Buffer (1×) and NuPAGE Sample Reducing Agent (1×; Invitrogen) were added to the clarified supernatants, and the samples were boiled at 95°C for 5 min and spun down at 13,000g for 10 min. For Western blotting, 15 μl of sample was loaded into a NuPAGE 4 to 12% gradient bis-tris gel (Invitrogen) and run at 120 V for 75 min before transfer to polyvinylidene difluoride transfer membrane (0.45-μm pore size, Millipore) for 240 min at 80 V at 4°C. The membrane was blocked in 5% milk in 1× Tris-buffered saline (TBS) [20 mM tris (pH 8.0) and 150 mM NaCl] for 1 hour shaking at room temperature. Primary antibodies [monoclonal rabbit anti-LRRK2 (Abcam, ab133474; RRID: AB_2713963), polyclonal rabbit anti-LRRK1 (Abcam, ab228666), monoclonal rabbit anti-LRRK2 phospho-S935 (Abcam, ab133450; RRID: AB_2732035), monoclonal rabbit anti-Rab8a phospho-T72 (Abcam, ab230260; RRID: AB_2814988), monoclonal rabbit anti-Rab7 phospho-S72 (Abcam, ab302494; RRID: AB_2933985), monoclonal rabbit anti–glyceraldehyde-3-phosphate dehydrogenase (GAPDH; Cell Signalling Technology, 2118; RRID: AB_561053), and monoclonal mouse anti-GFP (Santa Cruz Biotechnology, sc-9996; RRID: AB_627695)] were diluted in 5% milk in TBS and incubated with membrane for 16 hours at 4°C. Following incubation, membranes were washed three times with 1× TBS-T [20 mM tris (pH 8.0), 150 mM NaCl, and 0.1% Tween 20] before incubation with IRDye 680RD goat anti-rabbit IgG (LI-COR, 926-68071; RRID: AB_10956166) and IRDye 800CW goat anti-mouse IgG (LI-COR, 926-32210; RRID: AB_621842) secondary antibodies in 5% milk in 1× TBS for 1 hour at room temperature. Membranes were then washed three times in 1× TBS-T before imaging on Li-COR Odyssey CLx controlled by Imaging Studio software (www.licorbio.com/image-studio, RRID:SCR_015795). Image processing and quantification were performed in ImageJ version 2.14.0 (National Institutes of Health; https://imagej.net/, RRID:SCR_003070). The signal intensity of each band was assessed using the Analyze>Gels tool. The band intensity for phosphorylated LRRK2 was measured and compared to total LRRK2 levels (run under identical conditions on a separate gel). Band intensity for phosphorylated Rab7 or Rab8a was measured and compared against total GFP-Rab7 or GFP-Rab8a (using anti-GFP antibody) and LRRK1/LRRK2 levels as appropriate. Comparative statistical analysis of phosphorylation levels was analyzed using a one-way analysis of variance (ANOVA) and corrected using Tukey’s multiple comparisons test in GraphPad Prism 10 (www.graphpad.com/, RRID:SCR_002798). (For current step-by-step protocol for LRRK transfection and Western blotting, see dx.doi.org/10.17504/protocols.io.kxygx9bozg8j/v1.)

LRRK2 = target: T1, LRRK2 (Homo sapiens, UniProt Q5S007); assay: Western blot of Rab8a phosphorylation (pT72) in 293T cells transfected with wild-type LRRK2 and GFP-Rab8a; type: cell-based; details: 5 μM, 4 h
T1 construct: wild-type full-length LRRK2 (pcDNA5-LRRK2, RRID: Addgene_229019)
T1 sequence (Q5S007 whole entry): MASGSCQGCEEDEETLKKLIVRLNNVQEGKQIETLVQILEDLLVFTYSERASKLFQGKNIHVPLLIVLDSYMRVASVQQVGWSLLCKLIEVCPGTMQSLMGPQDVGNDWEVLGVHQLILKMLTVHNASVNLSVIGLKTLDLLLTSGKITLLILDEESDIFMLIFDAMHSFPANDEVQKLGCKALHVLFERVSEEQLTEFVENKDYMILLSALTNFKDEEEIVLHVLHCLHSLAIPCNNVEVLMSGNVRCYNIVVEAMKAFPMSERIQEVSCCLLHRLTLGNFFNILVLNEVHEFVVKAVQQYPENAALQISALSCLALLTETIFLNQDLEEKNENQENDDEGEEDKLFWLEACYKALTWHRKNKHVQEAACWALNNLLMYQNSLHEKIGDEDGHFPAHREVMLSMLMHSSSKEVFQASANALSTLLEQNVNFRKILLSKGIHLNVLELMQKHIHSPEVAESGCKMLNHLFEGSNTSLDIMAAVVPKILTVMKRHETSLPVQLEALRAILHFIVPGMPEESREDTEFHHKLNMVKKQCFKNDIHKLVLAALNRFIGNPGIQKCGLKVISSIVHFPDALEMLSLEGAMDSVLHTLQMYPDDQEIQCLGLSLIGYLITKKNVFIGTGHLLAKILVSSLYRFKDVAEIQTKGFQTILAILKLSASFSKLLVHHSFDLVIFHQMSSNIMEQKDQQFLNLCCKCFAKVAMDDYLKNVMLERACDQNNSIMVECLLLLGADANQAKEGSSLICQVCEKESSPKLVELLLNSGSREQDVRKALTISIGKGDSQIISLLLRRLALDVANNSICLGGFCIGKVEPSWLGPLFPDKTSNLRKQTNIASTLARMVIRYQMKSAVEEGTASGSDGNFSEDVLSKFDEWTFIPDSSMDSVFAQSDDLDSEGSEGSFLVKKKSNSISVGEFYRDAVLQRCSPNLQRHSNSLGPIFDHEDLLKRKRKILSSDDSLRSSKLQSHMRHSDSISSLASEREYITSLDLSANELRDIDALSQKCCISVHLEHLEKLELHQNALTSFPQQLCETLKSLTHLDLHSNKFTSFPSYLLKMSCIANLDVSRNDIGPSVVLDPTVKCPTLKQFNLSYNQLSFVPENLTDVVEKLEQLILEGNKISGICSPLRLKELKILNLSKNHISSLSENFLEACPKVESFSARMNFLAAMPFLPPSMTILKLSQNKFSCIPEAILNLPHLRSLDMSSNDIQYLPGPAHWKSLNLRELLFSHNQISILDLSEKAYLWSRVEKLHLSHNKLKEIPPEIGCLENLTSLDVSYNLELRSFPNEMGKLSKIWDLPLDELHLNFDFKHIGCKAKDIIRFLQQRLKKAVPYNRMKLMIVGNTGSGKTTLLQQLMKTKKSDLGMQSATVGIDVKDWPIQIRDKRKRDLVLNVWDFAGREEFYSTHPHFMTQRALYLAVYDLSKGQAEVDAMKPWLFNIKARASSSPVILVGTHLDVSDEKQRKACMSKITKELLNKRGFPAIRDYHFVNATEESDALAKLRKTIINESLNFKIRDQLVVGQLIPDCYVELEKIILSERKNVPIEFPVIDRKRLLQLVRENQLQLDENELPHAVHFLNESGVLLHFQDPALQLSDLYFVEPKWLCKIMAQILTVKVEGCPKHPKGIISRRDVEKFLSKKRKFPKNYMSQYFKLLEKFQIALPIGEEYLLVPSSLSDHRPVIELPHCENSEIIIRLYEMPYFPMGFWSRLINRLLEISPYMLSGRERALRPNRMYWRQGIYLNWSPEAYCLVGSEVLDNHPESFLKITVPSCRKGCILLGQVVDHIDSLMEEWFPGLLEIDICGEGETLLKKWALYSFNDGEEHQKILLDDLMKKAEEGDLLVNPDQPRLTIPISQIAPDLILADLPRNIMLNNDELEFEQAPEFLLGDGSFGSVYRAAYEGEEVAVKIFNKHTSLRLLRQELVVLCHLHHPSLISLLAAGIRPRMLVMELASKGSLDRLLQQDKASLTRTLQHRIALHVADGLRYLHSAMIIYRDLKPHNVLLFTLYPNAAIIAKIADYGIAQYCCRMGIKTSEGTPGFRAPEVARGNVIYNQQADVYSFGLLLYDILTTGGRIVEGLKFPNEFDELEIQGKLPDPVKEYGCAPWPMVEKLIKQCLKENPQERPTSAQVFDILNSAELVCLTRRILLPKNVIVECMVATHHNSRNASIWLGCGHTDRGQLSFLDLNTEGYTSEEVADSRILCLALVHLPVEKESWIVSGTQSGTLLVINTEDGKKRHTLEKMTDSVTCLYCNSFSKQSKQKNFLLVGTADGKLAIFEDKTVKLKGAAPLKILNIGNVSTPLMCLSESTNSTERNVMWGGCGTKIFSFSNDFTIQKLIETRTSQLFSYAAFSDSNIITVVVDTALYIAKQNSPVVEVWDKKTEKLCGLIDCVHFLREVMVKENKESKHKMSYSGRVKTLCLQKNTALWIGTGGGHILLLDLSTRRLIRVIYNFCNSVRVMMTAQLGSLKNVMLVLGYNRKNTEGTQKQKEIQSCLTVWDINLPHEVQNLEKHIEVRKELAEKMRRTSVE
Method: For all in cell kinase assays, after 48 hours, transfected cells were treated with either DMSO (control) or the indicated inhibitors for 4 hours at 37°C and 5% CO2. Following treatments, cells were washed three times with ice cold PBS. Cells were then lysed in ice cold radioimmunoprecipitation assay (RIPA) lysis buffer [50 mM tris (pH 8.0), 150 mM NaCl, 1% Triton X-100, 0.1% SDS, 0.5% sodium deoxycholate, and 1 mM DTT] in the presence of complete mini EASYpack protease inhibitor cocktail and the PhosSTOP EASYpack phosphatase inhibitor cocktail (Roche). Resuspended and lysed cells were clarified by centrifugation at 13,000g for 15 min at 4°C. […] The membrane was blocked in 5% milk in 1× Tris-buffered saline (TBS) [20 mM tris (pH 8.0) and 150 mM NaCl] for 1 hour shaking at room temperature. […] Membranes were then washed three times in 1× TBS-T before imaging on Li-COR Odyssey CLx controlled by Imaging Studio software (www.licorbio.com/image-studio, RRID:SCR_015795). […] The signal intensity of each band was assessed using the Analyze>Gels tool. The band intensity for phosphorylated LRRK2 was measured and compared to total LRRK2 levels (run under identical conditions on a separate gel). Band intensity for phosphorylated Rab7 or Rab8a was measured and compared against total GFP-Rab7 or GFP-Rab8a (using anti-GFP antibody) and LRRK1/LRRK2 levels as appropriate. Comparative statistical analysis of phosphorylation levels was analyzed using a one-way analysis of variance (ANOVA) and corrected using Tukey’s multiple comparisons test in GraphPad Prism 10 (www.graphpad.com/, RRID:SCR_002798).

`Cc1ccc(C(=O)Nc2ccc(CN3CCN(C)CC3)c(C(F)(F)F)c2)cc1C#Cc1cnc2cccnn12` [Ponatinib, reference compound] was tested, and the “pS935 LRRK2/LRRK2 normalized to DMSO, Mean” value ([1]; 5 μM, 4 h, 3 replicates) was 0.91, the “pS935 LRRK2/LRRK2 normalized to DMSO” value ([1]; 5 μM, 4 h, individual Western blots) was 0.7959 and 0.8749 and 1.059 and the “effect on phosphorylation of LRRK2 S935” value ([1]; 293T cells, MLi-2 500 nM) was “none of the tested type II inhibitors (broad-spectrum kinase inhibitor Ponatinib or our top compounds RN277 and RN341) reduced the phosphorylation level at this site”. For the same compound, the “pRab8/Rab8/LRRK2 normalized to DMSO, Mean” value (LRRK2; 3 replicates) was 0.2682 and the “pRab8/Rab8/LRRK2 normalized to DMSO” value (LRRK2; individual Western blots) was 0.2608 and 0.2643 and 0.2795.

From publication PMC12136037, “Type II kinase inhibitors that target Parkinson’s disease–associated LRRK2” (Science Advances, 2025)
